Assay results from US20140242093A1, “METHODS AND COMPOSITIONS FOR MODULATING THE INNATE IMMUNE RESPONSE AND/OR MYOGENESIS IN A MAMMALIAN SUBJECT” (FRED HUTCHINSON CANCER RESEARCH CENTER, priority 2011, published 2014).

System: MaLR transcripts (THE1)
Experiment: MaLR expression analysis by real-time PCR
Type: cell-based, human
Conditions: RT-PCR, transduced muscle cells
Protocol: Real-time PCR was performed as described above. Water and minus RT controls were checked to ensure there was no amplification of these repetitive elements from residual or contaminating genomic DNA.

## DUX4-fl: full-length DUX4 protein (SEQ ID NO:110), expressed from lentiviral or pCS2 vectors or in vitro translated
  endogenous MaLR transcripts: induction of endogenous MaLR transcripts
